{"source": "patent US7498162B2", "about": "“Lactic acid bacteria capable of reducing an individual's tendency to develop allergic reactions” (Nestec S.A., priority 2000, dated 2009)", "format_in_all_cases": "in vivo, Balb/c mice", "key": {"[1]": {"test_system": "Spleen lymphocyte", "assay": "Splenocyte specific proliferation assay ([3H]-Thy, stimulation index)", "conditions": "synthetic peptide given orally; for Spleen lymphocyte SI (test/control): SI: Stimulation Index; for T cell proliferation / T cell response: result in words", "procedure": "(§1) For assessing the tolerogenic properties of the various peptides female Balb/c mice were used, obtained from IFFA-Crédo (L'Abresle France). The animals were all bred and raised on a milk free diet. At the beginning of the experiments the animals were 3 weeks old. They received by gavage native β-lactoglobulin (5 mg/g of body weight), various amounts of digested β-lactoglobulin and various amounts of the different peptides obtained under a) above. Control mice were fed saline water. After 5 days on such a diet all mice were immunized with β-lactoglobulin and ovalbumin (grade V, Sigma) as a non related antigen in order to assess the specificity of the immune response. A delayed type hypersensitivity evaluation (DTH) was performed 21 days after the systemic challenge by comparing the thickness of the left rear footpad, prior to and after the immunization. 24 hours after the immunization the foot pad thickness of the animals were measured (expressed in Δ thickness (mm)). Subsequently, blood was taken from all mice, followed by talking the spleens, that were pooled according to group treatment. Splenocyte specific proliferation assays were performed for each group. The intestinal contents were individually collected. Serum and intestinal samples were individually frozen at −80° C. until performance of the respective assays. Anti-β-lactoglobulin IgE and anti-ovalbumin IgE levels were determined both in serum and intestinal samples.\nSpleen cell solutions were homogenized in PBS and purified. The cells were co-cultured in the presence of β-lactoglobulin or phytohemagglutinin A. Tritiated thymidine ([^3H]-Thy (Amersham, Zürich) was added during the last 6 hours of culture and the plates were harvested and analyzed by scintillation counting. Stimulation indices were calculated as the ratio of blank-substracted test and control levels expressed as the mean cpm of [^3H]-Thy incorporated by triplicate cultures.\n(§2) The synthetic peptides were analysed for their tolerogenic capacity in the […] mouse model."}, "[2]": {"test_system": "MLN lymphocytes", "assay": "Mesenteric lymph node lymphocyte proliferation (stimulation index)", "conditions": "synthetic peptide given orally"}, "[3]": {"test_system": "anti-β-lactoglobulin IgE", "assay": "Oral tolerance mouse model: anti-β-lactoglobulin IgE ELISA titer", "conditions": "synthetic peptide given orally; for IgE titer (log) (test/control): test value of the test/control pair (control 3.39), mice then immunized with β-lactoglobulin", "procedure": "as §1\nThe serum and intestinal fluids were diluted and assayed in duplicate for anti-β-lactoglobulin and anti-ovalbumin IgE antibodies using ELISA. Pooled samples of 20 non immunized mice were used as negative controls. The titers were determined by calculating the dilution of the sample, that gave twice the absorbance of the negative control. The titers were expressed as the log10 of the reciprocal of he dilution\nas §2"}}, "data": [{"substance": "T-6/T-17: synthetic β-lactoglobulin peptide (residues 84-100), SEQ ID 24: CFKIDALNENKVLVLDTDYKKYS (CFKIDALNENKVLVLDTDYKKYS)", "values": [{"measurement": "Spleen lymphocyte SI (test/control)", "setting": "[1]", "value": 0.92}, {"measurement": "MLN lymphocytes SI (test/control)", "setting": "[2]", "value": 0.81}, {"measurement": "IgE titer (log) (test/control)", "setting": "[3]", "value": "3.40/3.39 log"}]}, {"substance": "T-6: synthetic β-lactoglobulin peptide (residues 84-91 with flanking residues and extra Cys), SEQ ID 22: C F K I D A L N E N K V S R (CFKIDALNENKVSR)", "values": [{"measurement": "Spleen lymphocyte SI (test/control)", "setting": "[1]", "value": 0.53}, {"measurement": "T cell proliferation / T cell response", "setting": "[1]", "value": "suppressed"}, {"measurement": "MLN lymphocytes SI (test/control)", "setting": "[2]", "value": 0.29}, {"measurement": "IgE titer (log) (test/control)", "setting": "[3]", "value": "3.24/3.39 log"}]}, {"substance": "T-13: control peptide, N-terminus of β-lactoglobulin (residues 1-8), SEQ ID 25: L I V T Q T M K S R C (LIVTQTMKSRC) [reference compound]", "values": [{"measurement": "Spleen lymphocyte SI (test/control)", "setting": "[1]", "value": 1.70}, {"measurement": "MLN lymphocytes SI (test/control)", "setting": "[2]", "value": 0.87}, {"measurement": "oral tolerance to BLG", "setting": "[3]; result in words", "value": "did not induce"}, {"measurement": "IgE titer (log) (test/control)", "setting": "[3]", "value": "3.20/3.39 log"}]}, {"substance": "T-17: synthetic β-lactoglobulin peptide (residues 92-100 with flanking residues and extra Cys), SEQ ID 23: C N K V L V L D T D Y K K Y S (CNKVLVLDTDYKKYS)", "values": [{"measurement": "Spleen lymphocyte SI (test/control)", "setting": "[1]", "value": 0.31}, {"measurement": "T cell proliferation / T cell response", "setting": "[1]", "value": "reduced"}, {"measurement": "MLN lymphocytes SI (test/control)", "setting": "[2]", "value": 0.41}, {"measurement": "IgE production", "setting": "[3]; result in words", "value": "reduced"}, {"measurement": "IgE titer (log) (test/control)", "setting": "[3]", "value": "2.67/3.39 log"}]}]}
